# Source: publication PMC6656724 (Communications Biology, 2019)
# Read-outs that look alike come from different tables or passages of the source.
# Experiments:
# [1] = Mouse brain penetration study; type: in vivo, female C57BL6 mice; settings: mouse, 1 mg/kg i.v.; for In blood / In brain: single mice, analyte inhibitor 1 (also after prodrugs) or 1h
# Description: Inhibitor 1 (and prodrugs 1a, 1b, 1c and 1d) was dosed as a bolus solution intravenously at 1 mg free base/kg (dose volume: 5 mL/kg; dose vehicle: 5% DMSO; 95% saline (inhibitor 1) or 5% DMSO; 40% PEG400; 55% MilliQ H2O (prodrugs 1a, 1b, 1c and 1d)) to female C57BL6 mice (n = 6). At 5 min and 60 min following intravenous bolus injection of test compound, mice (n = 3/timepoint) were placed under terminal anaesthesia with isofluorane. A blood sample was taken by cardiac puncture, the […] decapitated and the brain removed. Brain weight was noted and each brain homogenised with two volumes of methanol (2 mL/g brain). Each blood sample was diluted with distilled water (1:10). Diluted blood and the brain homogenates were then stored frozen until preparation and analysis by UPLC-MS/MS. For each mouse at each timepoint for 1, the concentration in brain (ng/g) was divided by the concentration in blood (ng/mL) to give a brain:blood ratio. The mean value obtained was quoted. For prodrugs 1a to 1d, only the concentration of 1 in blood (ng/mL) and brain (ng/g) was reported.
# A rapid and sensitive ultra-performance chromatography/tandem mass spectrometry (UPLC-MS/MS) method was developed and validated for the determination of inhibitor 1 and prodrug 1b (rat only). Chromatographic analysis was conducted on a Waters Acquity™ UPLC system. Chromatographic separation was performed with an Acquity™ UPLC BEH C18 column (50 × 2.1 mm, 1.7 µm, 130Å; Waters Corp.) maintained at 40 °C in a column oven. The mobile phase consisted of water with 0.01% formic acid and ACN with 0.01 % formic acid and it was delivered at a flow rate of 0.6 mL/min under gradient eluent conditions within an analysis cycle time of 3 min. The mass detection was conducted on a Waters Xevo™ TQs mass spectrometer equipped with a ScanWave™ technology. Quantitation of the analyte was performed in electrospray positive ionisation mode (ESI^+) using multiple reaction monitoring. The optimised fragmentation transition was m/z = 270.17 → 196.19 (mouse) or m/z = 270.17 → 223.76 (rat) for inhibitor 1 and m/z = 297.83 → 195.74 for prodrug 1b (rat).
# Sample extraction for blood and brain homogenate was by protein precipitation (1:3 or 1:6) using ACN containing suitable internal standard. Extracts were vortexed followed by centrifugation (2800 rpm for 10 min). An aliquot of each supernatant was then diluted two-fold in distilled water ready for analysis by UPLC-MS/MS.
# The weighted 1/x^2 calibration line was linear in the dynamic range of 1–5000 ng/mL for inhibitor 1 and 1–1000 ng/mL for prodrug 1b with a correlation coefficient (r^2) > 0.99 (inhibitor 1) or 0.98 (prodrug 1b). The quality control samples (QC) were prepared by using the same spiking scheme as the calibration samples and up to four different target concentration brain levels: 2 ng/mL (LQC), 40 ng/mL (MQC), 100 ng/mL (HQC) and 2000 ng/mL. Data collection, peak integration and calculations were performed using MassLynx software, version 2.1.
# [2] = Stability in mouse hepatic microsomes; settings: for half-life at 1 µM: mouse, pooled liver microsomes
# Description: 3.6.3 Compound stability in mouse hepatic microsomes and rat hepatocytes
# A microsomal stability assay was performed as described in the BioFocus Standard
# Operating Procedure ADME-SOP-83, using pooled hepatic mouse
# Test and control compounds (midazolam,
# dextromethorphan), were prepared in DMSO and incubated at an initial concentration
# in the presence of the cofactor, NADPH (1 mM). Aliquots were removed at 0, 5, 10,
# 20 and 40 minutes for termination of reactions and compound extraction with ACN
# containing an analytical internal standard. Samples were centrifuged and the
# supernatant fractions analysed for parent compound by mass spectrometry (LC-
# MS/MS). The amount of compound remaining (expressed as %) was determined from
# the MS response in each sample relative to that in the T = 0 samples (normalised for
# internal standard). Ln plots of the % remaining were used to determine the half-life
# the slope of the Ln % remaining vs time curve. The in vitro intrinsic clearance Clint
# [3] = test system: MDR1 (P-glycoprotein); experiment: in vitro; type: in vitro ADME, canine; settings: dog; for efflux ratio at 1 h, 10 µM: pH 7.4, MDR1 MDCK, Papp B>A / Papp A>B
# Description: (§1) internal standard at each timepoint. […]
# (§2) including an analytical internal standard.
# (§3) Apparent permeability (Papp) values were determined from the relationship: […]
# (§4) Where V is the volume of each Transwell compartment (apical 125 µL, basolateral 600 µL), and concentrations are the relative MS responses for compound (normalized to internal standard) in the donor chamber before incubation and acceptor chamber at the end of the incubation. Area = area of cells exposed for drug transfer (0.33 cm 2).
# (§5) Efflux ratios (Papp B>A / Papp A>B) were calculated for each compound from the […]
# (§6) MDR1-MDCK cell line has been engineered to overexpress the efflux transporter, MDR1 (P-glycoprotein), and a finding of good permeability B>A, but poor […]
# (§7) order to confirm the involvement of MDR1 in any efflux seen, an “ef fective efflux ratio” (EER) was calculated by comparing compound efflux ratios (ER) in the two cell types, i.e. EER = ER (MDR1-MDCK)/ ER (wild-type MDCK). This ratio illustrates the effect of the over-expressed MDR1 normalised for the background movement of compound through the wild-type cells.
# (§8) Lucifer Yellow (LY) was added to the apical buffer in all wells to assess viability of the cell layer. As LY cannot freely permeate lipophilic barriers, a high degree of LY […]
# (§9) validity of other wells on the plate.
# (§10) Compound recovery from the wells was determined from MS responses (normalized to internal standard) in donor and acceptor chambers at the end of incubation compared to response in the donor chamber pre-incubation.
# [4] = in vitro; type: in vitro ADME, canine; settings: dog; for Papp A→B at 1 h, 10 µM / Papp B→A at 1 h, 10 µM / recovery at 1 h, 10 µM: MDCK; for efflux ratio at 1 h, 10 µM: pH 7.4, wild type MDCK, Papp B>A / Papp A>B
# Description: as §1, §2, §3, §4, §5, §6, §7, §8, §9, §10
# [5] = Half-life Mean, mouse hepatic microsomes
# [6] = Half-life n=1, mouse hepatic microsomes
# [7] = Half-life n=2, mouse hepatic microsomes
# [8] = MDCK-MDR1, pH 7.4, MDR1 MDCK, read-out: Papp A>B Mean
# [9] = MDCK-MDR1, pH 7.4, MDR1 MDCK, read-out: Papp B>A Mean
# [10] = MDCK-MDR1, pH 7.4, MDR1 MDCK, read-out: Recovery A>B Mean
# [11] = MDCK-MDR1, pH 7.4, MDR1 MDCK, read-out: Recovery A>B n=1
# [12] = MDCK-MDR1, pH 7.4, MDR1 MDCK, read-out: Recovery A>B n=2
# [13] = MDCK-MDR1, pH 7.4, MDR1 MDCK, read-out: Recovery B>A Mean
# [14] = MDCK-MDR1, pH 7.4, MDR1 MDCK, read-out: Recovery B>A n=1
# [15] = MDCK-MDR1, pH 7.4, MDR1 MDCK, read-out: Recovery B>A n=2
# [16] = MDCK-MDR1, pH 7.4, Papp A>B n=1, MDR1 MDCK
# [17] = MDCK-MDR1, pH 7.4, Papp A>B n=2, MDR1 MDCK
# [18] = MDCK-MDR1, pH 7.4, Papp B>A n=1, MDR1 MDCK
# [19] = MDCK-MDR1, pH 7.4, Papp B>A n=2, MDR1 MDCK
# [20] = pH 7.4, Papp A>B n=1, wild type MDCK
# [21] = pH 7.4, Papp A>B n=2, wild type MDCK
# [22] = pH 7.4, Papp B>A n=1, wild type MDCK
# [23] = pH 7.4, Papp B>A n=2, wild type MDCK
# [24] = pH 7.4, wild type MDCK, read-out: Papp A>B Mean
# [25] = pH 7.4, wild type MDCK, read-out: Papp B>A Mean
# [26] = pH 7.4, wild type MDCK, read-out: Recovery A>B Mean
# [27] = pH 7.4, wild type MDCK, read-out: Recovery A>B n=1
# [28] = pH 7.4, wild type MDCK, read-out: Recovery A>B n=2
# [29] = pH 7.4, wild type MDCK, read-out: Recovery B>A Mean
# [30] = pH 7.4, wild type MDCK, read-out: Recovery B>A n=1
# [31] = pH 7.4, wild type MDCK, read-out: Recovery B>A n=2
Structure (SMILES),Mean intrinsic clearance ([2]; mouse hepatic microsomes),"half-life at 1 µM [2, 5] [h]","half-life at 1 µM [2, 6] [h]","half-life at 1 µM [2, 7] [h]","Papp A→B at 1 h, 10 µM [3, 8] [×10⁻⁶ cm/s]","Papp B→A at 1 h, 10 µM [3, 9] [×10⁻⁶ cm/s]","recovery at 1 h, 10 µM [3, 10] [%]","recovery at 1 h, 10 µM [3, 11] [%]","recovery at 1 h, 10 µM [3, 12] [%]","recovery at 1 h, 10 µM [3, 13] [%]","recovery at 1 h, 10 µM [3, 14] [%]","recovery at 1 h, 10 µM [3, 15] [%]","Papp A→B at 1 h, 10 µM [3, 16] [×10⁻⁶ cm/s]","Papp A→B at 1 h, 10 µM [3, 17] [×10⁻⁶ cm/s]","Papp B→A at 1 h, 10 µM [3, 18] [×10⁻⁶ cm/s]","Papp B→A at 1 h, 10 µM [3, 19] [×10⁻⁶ cm/s]","efflux ratio at 1 h, 10 µM [3]","Papp A→B at 1 h, 10 µM [4, 20] [×10⁻⁶ cm/s]","Papp A→B at 1 h, 10 µM [4, 21] [×10⁻⁶ cm/s]","Papp B→A at 1 h, 10 µM [4, 22] [×10⁻⁶ cm/s]",other results
COC(=O)CN1C(=O)COc2cc(C)c(Cl)c(C)c21 [1a],–,–,–,–,–,–,–,–,–,–,–,–,–,–,–,–,–,–,–,–,"In blood ([1]; 5 min, listed as prodrug 1a, 1 mg/kg): ≤ LLoQ"
"Cn1c(C(=O)N[C@@H](C(=O)O)c2ccccc2)cc2cc(F)ccc21 [compound 5, (R)-2-(5-fluoro-1-methyl-1H-indole-2-carboxamido)-2-phenylacetic acid]",< 28 µL/min/mg microsome protein,> 1.67,> 1.67,> 1.67,2.6,2.25,83,87,79,81.5,80,83,2.8,2.4,2.4,2.1,0.88,2.6,2.1,1.6,"Papp B→A at 1 h, 10 µM [4, 23]: 1.4 ×10⁻⁶ cm/s; Papp A→B at 1 h, 10 µM [4, 24]: 2.35 ×10⁻⁶ cm/s; Papp B→A at 1 h, 10 µM [4, 25]: 1.5 ×10⁻⁶ cm/s; recovery at 1 h, 10 µM [4, 26]: 81%; recovery at 1 h, 10 µM [4, 27]: 81%; recovery at 1 h, 10 µM [4, 28]: 81%; recovery at 1 h, 10 µM [4, 29]: 83.5%; recovery at 1 h, 10 µM [4, 30]: 86%; recovery at 1 h, 10 µM [4, 31]: 81%; efflux ratio at 1 h, 10 µM [4]: 0.62"
Cc1cc2c(c(C)c1Cl)N(CC(=O)OC(C)C)C(=O)CO2 [1c],–,–,–,–,–,–,–,–,–,–,–,–,–,–,–,–,–,–,–,–,In brain ([1]; 60 min): ≤ LLoQ
"CC(CSc1ccc(Cl)cc1)C(=O)O (stereo not drawn) [compound 6, 3-[(4-chlorophenyl)thio]-2-methylpropanoic acid]",< 28 µL/min/mg microsome protein,> 1.67,> 1.67,> 1.67,50.5,41.5,82,68,96,80,93,67,40,61,51,32,0.81,33,41,51,"Papp B→A at 1 h, 10 µM [4, 23]: 50 ×10⁻⁶ cm/s; Papp A→B at 1 h, 10 µM [4, 24]: 37 ×10⁻⁶ cm/s; Papp B→A at 1 h, 10 µM [4, 25]: 50.5 ×10⁻⁶ cm/s; recovery at 1 h, 10 µM [4, 26]: 66%; recovery at 1 h, 10 µM [4, 27]: 57%; recovery at 1 h, 10 µM [4, 28]: 75%; recovery at 1 h, 10 µM [4, 29]: 93.5%; recovery at 1 h, 10 µM [4, 30]: 98%; recovery at 1 h, 10 µM [4, 31]: 89%; efflux ratio at 1 h, 10 µM [4]: 1.36"
"Cc1cc2c(c(C)c1Cl)N(Cc1nn[nH]n1)C(=O)CO2 [1h, 6-chloro-5,7-dimethyl-4-(2H-tetrazol-5-ylmethyl)-1,4-benzoxazin-3-one]",–,–,–,–,–,–,–,–,–,–,–,–,–,–,–,–,–,–,–,–,Blood levels lower than those observed for 1 [1]: ~ 50%; Brain penetrance (in words) [1]: very limited brain penetrance; In blood ([1]; 60 min): ≤ LLoQ; In brain ([1]; 60 min): ≤ LLoQ
"Oc1ccc(-c2csc3nc(-c4ccccc4)nn23)c(O)c1 [compound 3, 4-(2-phenyl[1,2,4]triazolo[5,1-b][1,3]thiazol-6-yl)benzene-1,3-diol]",49 µL/min/mg microsome protein,0.983,0.8,1.15,3.25,4.95,18,15,21,49.5,51,48,2.9,3.6,4.9,5,1.5,2.7,3.9,2.7,"Papp B→A at 1 h, 10 µM [4, 23]: 3.2 ×10⁻⁶ cm/s; Papp A→B at 1 h, 10 µM [4, 24]: 3.3 ×10⁻⁶ cm/s; Papp B→A at 1 h, 10 µM [4, 25]: 2.95 ×10⁻⁶ cm/s; recovery at 1 h, 10 µM [4, 26]: 15%; recovery at 1 h, 10 µM [4, 27]: 15%; recovery at 1 h, 10 µM [4, 28]: 15%; recovery at 1 h, 10 µM [4, 29]: 49%; recovery at 1 h, 10 µM [4, 30]: 50%; recovery at 1 h, 10 µM [4, 31]: 48%; efflux ratio at 1 h, 10 µM [4]: 0.89"
